Common to all, as to test: inhibition of tumour cell growth, NCI panel, 48 h
Assay [1] concerns HCT-15 colon.
Assay [2] deals with TK-10 renal.
The test system of assay [3] is ACHN renal.
Assay [4] deals with OVCAR-4 ovarian.
For assay [5], the system named is OVCAR-3 ovarian.
Assay [6] has as its system RPMI-8226 leukemia.
In assay [7] the test system is NCI-H522 lung.
Assay [8] relates to NCI-H226 lung.
Assay [9] relates to OVCAR-5 ovarian.
For assay [10], the system named is A498 renal.

The record followed here is PubChem BioAssay (NCI).

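The compound was tested at five concentrations on cells cultured in 96-well plates, with a 48-hour exposure period. GI50 is the concentration that inhibits growth by half. At the TGI there is no net growth.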 Bounds are passed on as bounds.

Take `COC(=O)/C(C#N)=C\N1CCN(C(=O)c2ccco2)C1=S`: the GI50 is 2.95 µM in assay [1]; 3.63 µM in [2]; 4.81 µM in assay [3]; 23.3 µM in assay [4]; 4.92 µM in [5]; 3.3 µM in assay [6]. In addition, the TGI in assay [1] is greater than 100 µM; in assay [2] it was 13.2 µM; in [3] it was 23.3 µM; in assay [4] it was 58.8 µM; in assay [5] it was 33.6 µM; in [6], 62.4 µM.

As to `CN(C)c1cccc(-c2cc(=O)c3ccccc3[nH]2)c1`, the TGI in [7] is 57.6 µM; in [1] it was greater than 100 µM; in assay [2], greater than 100 µM; in assay [3] it was greater than 100 µM; in assay [8], 66.9 µM; in assay [5] it was greater than 100 µM. This compound yielded a TGI in assay [6] greater than 100 µM. Besides, the GI50 was 29.4 µM in [8] and 42.1 µM in assay [5].

Turning to `NC(=S)N/N=C(/CC(=O)c1ccc([N+](=O)[O-])cc1)C(=O)Nc1ncc([N+](=O)[O-])s1`, the TGI in assay [2], in assay [3], in assay [8], in assay [4], in assay [5] and in [6] was greater than 100 µM in each case. Besides, in assay [9], the TGI was greater than 100 µM.

Regarding `O=C1CCCCC/C=C2/CC[C@H](Sc3ccccc3)[C@@H]12`, the TGI in [1], in [2], in [3], in [8], in assay [4] and in assay [6] was greater than 100 µM each time.

With `C/C(=N/O)C1CC=C(S(=O)(=O)c2ccccc2)C1` (stereo not given), the TGI in assay [7], in assay [1], in [2], in assay [3], in [8] and in assay [4] was greater than 100 µM each time. Moreover, the TGI in assay [5], in assay [6] and in assay [9] was greater than 100 µM in each case.

Regarding `CN(C)CCNC(=O)c1cccc2nc3ccc4ccccc4c3nc12`, the TGI in assay [1] was determined as 0.468 µM; in [2] it was 0.574 µM; in assay [10] it was 0.241 µM; in [8] it was 0.513 µM; in [4] it was 1.02 µM; in assay [5] it was 0.53 µM. This compound also showed a TGI in [9] of 0.55 µM.

For the compound `CCc1cccc(C(C)CC)c1N=C(NC(=O)c1ccccc1C(=O)NC(=Nc1c(CC)cccc1C(C)CC)SC)SC` (stereo not given), the TGI was 64.4 µM in [7]; greater than 100 µM in assay [1]; 79 µM in [2]; greater than 100 µM in assay [3]; 57.1 µM in assay [8]; greater than 100 µM in assay [4]. For the same compound, the TGI in [5] is greater than 100 µM; in assay [6], 89.8 µM; in assay [9], greater than 100 µM.

Turning to `CC(=O)OC1C=CC2CCN3C(=O)c4cc5c(cc4[C@H]1C23)OCO5` (stereo not given in full), the TGI in assay [7], in assay [1], in [2], in assay [3], in assay [8] and in [5] was greater than 100 µM throughout. In addition, in assay [6], the TGI was greater than 100 µM.

With `COc1ccc(/C=C/C(=O)c2sc(N)nc2C)cc1`, the TGI in assay [7], in [1], in [2], in assay [10], in [5] and in assay [6] was greater than 100 µM throughout. Also, the TGI in [9] is greater than 100 µM.

Regarding `C=C1C(=O)OC2CCCCC3OC3C12` (stereo not given), the TGI in assay [7] stood at 3.91 µM; in assay [1], 19.9 µM; in [2] it was 26.7 µM; in [10], 29.1 µM; in assay [3], 23 µM; in assay [4], 28.7 µM. Also, the TGI in assay [5] is 26.5 µM; in assay [6], 27.4 µM; in assay [9], 32.3 µM.

In the case of `COc1cc2c(cc1OC)C(CCc1ccc(Cl)cc1)N(C)CC2` (stereo not given), the GI50 in assay [7] is 20 µM; in assay [1] it was 30.2 µM; in assay [2] it was 17 µM; in assay [3], 25.7 µM; in [8], 58.6 µM; in [4], 33.9 µM. Also, the GI50 in assay [5] is 33.3 µM; in assay [6], 24.9 µM; in [9], 19.6 µM. In addition, the TGI in assay [7] is 38.6 µM; in assay [1], greater than 100 µM; in assay [2] it was 42.2 µM; in [3], 92 µM; in assay [8] it was greater than 100 µM; in [4], greater than 100 µM. Further, the results for the TGI in assay [5], in [6] and in assay [9] were greater than 100 µM, greater than 100 µM and 61.7 µM, respectively.

As to `Cc1cccc2c1Oc1cc(Cl)ccc1C2NC(=O)CCN1CCCCC1` (stereo not given), the TGI in assay [7] worked out at 31.3 µM; in assay [1] it was 32.7 µM; in assay [2], 30 µM; in [4] it was 30.9 µM; in [6], 63 µM; in assay [9], 31.9 µM.

In the case of `C/C(=N\NC(=O)CC(=O)Nc1ccc(C)cc1)c1cc2ccccc2oc1=O`, the TGI in [7], in assay [1], in assay [2], in [3], in assay [8] and in [5] was greater than 100 µM in each case. For the same compound, the TGI in assay [6] is greater than 100 µM.

As for `COC1=C(OC)C(=O)C(/C=C(\C)C(=O)O)=C(C)C1=O`, the GI50 in assay [7], in assay [1], in assay [2], in [10], in assay [3] and in [4] was greater than 100 µM throughout. Moreover, the GI50 in assay [5], in assay [6] and in [9] was greater than 100 µM in each case. Further, the TGI in [7], in assay [1], in [2], in assay [10], in assay [3] and in assay [4] was greater than 100 µM throughout. The TGI in [5], in assay [6] and in [9] was greater than 100 µM each time.

In the case of `c1cncc(CNc2ccccc2-c2nnc(Nc3ccc4c(c3)OCO4)o2)c1`, the GI50 was 0.0247 µM in assay [7]; 0.0578 µM in assay [1]; 1.18 µM in assay [2]; 0.0199 µM in assay [10]; 0.717 µM in assay [3]; 1 µM in assay [4]. Also, the GI50 in [5] is 0.0303 µM; in assay [6], 0.16 µM; in assay [9], 0.347 µM. The TGI is 0.0709 µM in assay [7]; greater than 100 µM in [1]; greater than 46.8 µM in assay [2]; greater than 100 µM in [10]; greater than 100 µM in assay [3]; greater than 100 µM in assay [4]. Further, the results for the TGI in assay [5], in assay [6] and in assay [9] were 0.0866 µM, greater than 100 µM and greater than 100 µM, respectively.

Regarding `O=[N+]([O-])c1cccc(C2SCc3nc4ccccc4n32)c1` (stereo not given), the TGI in [2], in [10], in assay [3], in assay [8], in [4] and in assay [9] was greater than 100 µM in each case.

Take `Cc1ccc2nc3c(Cl)cc(=O)cc-3sc2c1`: the TGI in assay [7] was determined as 39 µM; in assay [1], 32 µM; in [2] it was 53.8 µM; in assay [3] it was 54.4 µM; in assay [8], 79.1 µM; in assay [4], 30.7 µM. Moreover, the TGI in assay [5] is 10.6 µM.

On to `C=C1CC[C@@H]2C(C)(C)[C@@H](O)CC[C@@]2(C)[C@@H]1COc1ccc2ccc(=O)oc2c1`, for which the GI50 in [7] is 13.1 µM; in assay [1], 11.5 µM; in assay [2] it was 15.3 µM; in [3] it was 14.3 µM; in assay [4], 6.97 µM; in [5], 13 µM. Further, the GI50 was 8.75 µM in [6] and 18.7 µM in assay [9]. In addition, the TGI was found to be 36.1 µM in assay [7]; 26.8 µM in [1]; 43.4 µM in [2]; 29.2 µM in assay [3]; 21.6 µM in [4]; 29.1 µM in assay [5]. Further, the TGI worked out at 65.7 µM in [6] and 39.9 µM in [9].

Consider `O=C(c1cc2ccccc2[nH]1)C(O)(c1cc2ccccc2[nH]1)c1cc2ccccc2[nH]1`, for which the TGI in assay [7], in [1], in [2], in assay [3], in assay [8] and in [5] was greater than 246 µM in each case. For the same compound, the TGI in assay [6] and in assay [9] was greater than 246 µM each time.

Regarding `O=C(CC(=O)N1N=C(n2ccc3ccccc32)CC1c1ccccc1)Nc1cccc(Cl)c1` (stereo not given), the TGI in assay [7], in [1], in [2], in assay [10], in assay [3] and in [4] was greater than 100 µM each time. For the same compound, the TGI in assay [5], in assay [6] and in assay [9] was greater than 100 µM throughout.
